The source made the active and inactive calls. How the calls were made is not given here.
System: CCRIS mutagenicity, Ames/micronucleus/aberration tests
Assay: CCRIS mutagenicity studies
[1] = Test System: AMES SALMONELLA TYPHIMURIUM, Strain/Indicator: TA100, Metabolic Activation: NONE, Method: PREINCUBATION
[2] = Test System: AMES SALMONELLA TYPHIMURIUM, Strain/Indicator: TA98, Metabolic Activation: NONE, Method: PREINCUBATION
[3] = Test System: AMES SALMONELLA TYPHIMURIUM, Strain/Indicator: TA98, Metabolic Activation: NONE, Method: STANDARD PLATE
[4] = Test System: AMES SALMONELLA TYPHIMURIUM, Strain/Indicator: TA100, Metabolic Activation: NONE, Method: STANDARD PLATE

N[C@@H](CCC(=O)N[C@@H](CS)C(=O)NCC(=O)O)C(=O)O
mutagenic call (Test System: AMES SALMONELLA TYPHIMURIUM, Strain/Indicator: TA92, Metabolic Activation: RAT, KIDNEY, S-9, Method: PREINCUBATION): active; positive | mutagenic call (Test System: AMES SALMONELLA TYPHIMURIUM, Strain/Indicator: TA92, Metabolic Activation: RAT, KIDNEY, S-9, Method: STANDARD PLATE): active; positive | mutagenic call (Test System: AMES SALMONELLA TYPHIMURIUM, Strain/Indicator: TA97, Metabolic Activation: RAT, KIDNEY, S-9, Method: PREINCUBATION): active; positive | mutagenic call (Test System: AMES SALMONELLA TYPHIMURIUM, Strain/Indicator: TA97, Metabolic Activation: RAT, KIDNEY, S-9, Method: STANDARD PLATE): active; positive | mutagenic call [1]: inactive; negative | mutagenic call (Test System: AMES SALMONELLA TYPHIMURIUM, Strain/Indicator: TA100, Metabolic Activation: RAT, KIDNEY, S-9, Method: PREINCUBATION): active; positive | mutagenic call (Test System: AMES SALMONELLA TYPHIMURIUM, Strain/Indicator: TA100, Metabolic Activation: RAT, KIDNEY, S-9, Method: STANDARD PLATE): active; positive | mutagenic call (Test System: AMES SALMONELLA TYPHIMURIUM, Strain/Indicator: TA102, Metabolic Activation: NONE, Method: PREINCUBATION): inactive; negative | mutagenic call (Test System: AMES SALMONELLA TYPHIMURIUM, Strain/Indicator: TA102, Metabolic Activation: NONE, Method: STANDARD PLATE): inactive; negative | mutagenic call (Test System: AMES SALMONELLA TYPHIMURIUM, Strain/Indicator: TA102, Metabolic Activation: RAT, KIDNEY, S-9, Method: PREINCUBATION): active; positive | mutagenic call (Test System: AMES SALMONELLA TYPHIMURIUM, Strain/Indicator: TA104, Metabolic Activation: RAT, KIDNEY, S-9, Method: PREINCUBATION): active; positive | mutagenic call (Test System: AMES SALMONELLA TYPHIMURIUM, Strain/Indicator: TA104, Metabolic Activation: RAT, KIDNEY, S-9, Method: STANDARD PLATE): inactive; negative | mutagenic call (Test System: AMES SALMONELLA TYPHIMURIUM, Strain/Indicator: TA1535, Metabolic Activation: RAT, KIDNEY, S-9, Method: PREINCUBATION): inactive; negative | mutagenic call (Test System: AMES SALMONELLA TYPHIMURIUM, Strain/Indicator: TA1537, Metabolic Activation: RAT, KIDNEY, S-9, Method: PREINCUBATION): inactive; negative | mutagenic call (Test System: Mouse lymphoma, Strain/Indicator: L5178Y (tk+/tk-), Metabolic Activation: None, Method: Suspension/plate): active; equivocal (previous evaluation positive) | mutagenic call (Test System: Mouse lymphoma, Strain/Indicator: L5178Y (tk+/tk-), Metabolic Activation: Rat, Liver, S-9, Aroclor 1254, Method: Suspension/plate): inactive; negative

O=[N+]([O-])c1cccc2nc3cccc([N+](=O)[O-])c3nc12
mutagenic call (Test System: AMES SALMONELLA TYPHIMURIUM, Strain/Indicator: TA98(NR), Metabolic Activation: NONE, Method: PREINCUBATION): active; positive | mutagenic call [2]: active; positive

Cc1cccc2c1ccc1ccccc12
mutagenic call (Test System: AMES SALMONELLA TYPHIMURIUM, Strain/Indicator: TA97, Metabolic Activation: NONE, Method: STANDARD PLATE): inactive; negative | mutagenic call (Test System: AMES SALMONELLA TYPHIMURIUM, Strain/Indicator: TA97, Metabolic Activation: RAT, LIVER, S-9, PCB, Method: STANDARD PLATE): active; positive | mutagenic call [3]: inactive; negative | mutagenic call (Test System: AMES SALMONELLA TYPHIMURIUM, Strain/Indicator: TA98, Metabolic Activation: RAT, LIVER, S-9, PCB, Method: STANDARD PLATE): active; positive | mutagenic call [4]: inactive; negative | mutagenic call (Test System: AMES SALMONELLA TYPHIMURIUM, Strain/Indicator: TA100, Metabolic Activation: RAT, LIVER, S-9, PCB, Method: STANDARD PLATE): active; positive

Cc1cc(=O)c2c(O)c3c(O)cc(O)c4c5c(O)cc(O)c6c(O)c7c(=O)cc(C)c8c1c2c(c34)c(c65)c78
mutagenic call [3]: inactive; negative | mutagenic call (Test System: AMES SALMONELLA TYPHIMURIUM, Strain/Indicator: TA98, Metabolic Activation: RAT, LIVER, S-9, AROCLOR 1254, Method: STANDARD PLATE): inactive; negative | mutagenic call [4]: inactive; negative | mutagenic call (Test System: AMES SALMONELLA TYPHIMURIUM, Strain/Indicator: TA100, Metabolic Activation: RAT, LIVER, S-9, AROCLOR 1254, Method: STANDARD PLATE): inactive; negative

C=CCOC(=O)C=C
mutagenic call (Test System: AMES SALMONELLA TYPHIMURIUM, Strain/Indicator: TA97, Metabolic Activation: HAMSTER, LIVER, S-9, AROCLOR 1254 (10 OR 30%), Method: PREINCUBATION): inactive; negative | mutagenic call (Test System: AMES SALMONELLA TYPHIMURIUM, Strain/Indicator: TA97, Metabolic Activation: NONE, Method: PREINCUBATION): inactive; negative | mutagenic call (Test System: AMES SALMONELLA TYPHIMURIUM, Strain/Indicator: TA97, Metabolic Activation: RAT, LIVER, S-9, AROCLOR 1254 (10 OR 30%), Method: PREINCUBATION): inactive; negative | mutagenic call (Test System: AMES SALMONELLA TYPHIMURIUM, Strain/Indicator: TA98, Metabolic Activation: HAMSTER, LIVER, S-9, AROCLOR 1254 (10%), Method: PREINCUBATION): inactive; negative | mutagenic call (Test System: AMES SALMONELLA TYPHIMURIUM, Strain/Indicator: TA98, Metabolic Activation: HAMSTER, LIVER, S-9, AROCLOR 1254 (30%), Method: PREINCUBATION): inactive; negative | mutagenic call [2]: inactive; negative | mutagenic call (Test System: AMES SALMONELLA TYPHIMURIUM, Strain/Indicator: TA98, Metabolic Activation: RAT, LIVER, S-9, AROCLOR 1254 (10%), Method: PREINCUBATION): inactive; negative | mutagenic call (Test System: AMES SALMONELLA TYPHIMURIUM, Strain/Indicator: TA98, Metabolic Activation: RAT, LIVER, S-9, AROCLOR 1254 (30%), Method: PREINCUBATION): inactive; negative | mutagenic call (Test System: AMES SALMONELLA TYPHIMURIUM, Strain/Indicator: TA100, Metabolic Activation: HAMSTER, LIVER, S-9, AROCLOR 1254 (10%), Method: PREINCUBATION): inactive; negative | mutagenic call (Test System: AMES SALMONELLA TYPHIMURIUM, Strain/Indicator: TA100, Metabolic Activation: HAMSTER, LIVER, S-9, AROCLOR 1254 (30%), Method: PREINCUBATION): inactive; negative | mutagenic call [1]: inactive; negative | mutagenic call (Test System: AMES SALMONELLA TYPHIMURIUM, Strain/Indicator: TA100, Metabolic Activation: RAT, LIVER, S-9, AROCLOR 1254 (10%), Method: PREINCUBATION): inactive; negative | mutagenic call (Test System: AMES SALMONELLA TYPHIMURIUM, Strain/Indicator: TA100, Metabolic Activation: RAT, LIVER, S-9, AROCLOR 1254 (30%), Method: PREINCUBATION): inactive; negative | mutagenic call (Test System: AMES SALMONELLA TYPHIMURIUM, Strain/Indicator: TA1535, Metabolic Activation: HAMSTER, LIVER, S-9, AROCLOR 1254 (10%), Method: PREINCUBATION): inactive; negative | mutagenic call (Test System: AMES SALMONELLA TYPHIMURIUM, Strain/Indicator: TA1535, Metabolic Activation: HAMSTER, LIVER, S-9, AROCLOR 1254 (30%), Method: PREINCUBATION): inactive; negative | mutagenic call (Test System: AMES SALMONELLA TYPHIMURIUM, Strain/Indicator: TA1535, Metabolic Activation: NONE, Method: PREINCUBATION): inactive; negative | mutagenic call (Test System: AMES SALMONELLA TYPHIMURIUM, Strain/Indicator: TA1535, Metabolic Activation: RAT, LIVER, S-9, AROCLOR 1254 (10%), Method: PREINCUBATION): inactive; negative | mutagenic call (Test System: AMES SALMONELLA TYPHIMURIUM, Strain/Indicator: TA1535, Metabolic Activation: RAT, LIVER, S-9, AROCLOR 1254 (30%), Method: PREINCUBATION): inactive; negative | mutagenic call (Test System: AMES SALMONELLA TYPHIMURIUM, Strain/Indicator: TA1537, Metabolic Activation: HAMSTER, LIVER, S-9, AROCLOR 1254 (10%), Method: PREINCUBATION): inactive; negative | mutagenic call (Test System: AMES SALMONELLA TYPHIMURIUM, Strain/Indicator: TA1537, Metabolic Activation: NONE, Method: PREINCUBATION): inactive; negative | mutagenic call (Test System: AMES SALMONELLA TYPHIMURIUM, Strain/Indicator: TA1537, Metabolic Activation: RAT, LIVER, S-9, AROCLOR 1254 (10%), Method: PREINCUBATION): inactive; negative
